From ChEMBL document CHEMBL1158897, “New alkaloids from Cephalotaxus fortunei” (J Nat Prod, 2003) come the findings set out here.

Molecules are shown by their SMILES. Converted amounts (≈) assume the structure as drawn.

The IC50 is the concentration needed to halve the response being measured. A low value points to higher potency.

The experiment relates to KB. Put plainly: Cytotoxicity against human KB cells after 72 hrs by neutral red staining. The format is functional, cell-based.
`COC1=C[C@]23CCC[N@@+]2([O-])CCc2cc4c(cc2[C@@H]3[C@@H]1O)OCO4` yielded an IC50 of 14 µg/mL (≈ 42.2 µM).

Compound `COC1=C[C@]23CCC[N@@+]2([O-])C[C@H](O)c2cc4c(cc2[C@@H]3[C@@H]1O)OCO4` had an IC50 of 31 µg/mL (≈ 89.2 µM).

In turn, `COC1=C[C@]23CCC[N@+]2([O-])CCc2cc4c(cc2[C@@H]3[C@@H]1O)OCO4` registered a half-inhibitory concentration (IC50) of 30 µg/mL (≈ 90.5 µM).

The compound `COC1=C2c3cc4c(cc3CCN3CCC[C@]23CC1O)OCO4` (some centres undefined) [ISOCEPHALOTAXINE] had an IC50 of 15 µg/mL (≈ 47.6 µM).
